From patent publication US20260234153A1, “NON-COVALENT DIMER CATION OF PURINE/PYRIMIDINE AND AMINO ACID, SALT THEREOF, PREPARATION METHOD THEREFOR, AND USE THEREOF” (Suzhou Protonation Chain Biotechnology Co., Ltd, priority 2023, published 2026) come the findings set out here.

Assay [1] relates to GES-1 human gastric mucosal epithelial cells. Briefly: Ethanol induced damage model of gastric mucosal epithelial cells, cell viability. The class given is cell-based. To be noted: GES1, GES-1 cells, 7% ethanol 12 h, then compound concentration 0.5 mg/mL, 24 h. On the procedure:
Chronic alcoholics are prone to gastric mucosal damage due to long-term alcohol damage.
The salts of example 51 and example 57 were taken as experimental compounds, and glycyrrhetinic acid was taken as a control compound. A blank control group (without ethanol) and a model group (with ethanol but without the salts of the examples or glycyrrhetinic acid) were set.
The cells were cultured in a complete RPMI 1640 medium for 6 h.
(§1) Then, the cell viability was detected.

Assay [2] has as its system SH-SY5Y human neuroblastoma cells. Briefly: Parkinson's disease cell model (6-OHDA), cell viability. The class given is cell-based. As to conditions: 24 h, read-out: Cell viability (%).
Source text: The salts of example 51 and examples 57 were taken as experimental compounds, and selegiline was taken as a control compound.
as §1

Usually viability stands for a per cent measure of how many cells are alive, often set against a control. In the case of `CC1(C)[C@@H](O)CC[C@]2(C)[C@H]3C(=O)C=C4[C@@H]5C[C@@](C)(C(=O)O)CC[C@]5(C)CC[C@@]4(C)[C@]3(C)CC[C@@H]12` [Glycyrrhetinic acid, glycyrrhetinic acid], the viability at 500 µg/mL in assay [1] came to 61.8%.
Turning to `C#CCN(C)[C@H](C)Cc1ccccc1` [Selegiline, selegiline], the viability at 500 µg/mL in assay [2] amounted to 37.5%.
